The values that follow are results of earlier work, collected in US9854807B2, “Potentiation of fixed coppers and other pesticides containing copper and supplementing plant nutrition” (priority 2014, dated 2018).

For the data set the following is noted: terms used by Richardson.

Consider `[Cl-].[Cu+2].[Cu+2].[OH-].[OH-].[OH-]` [Copper(2) Oxychloride], for which the solubility in water result is reported as “essentially insoluble in water”.
